Earlier results on 22 molecules are cited in US20050171374A1, “Preparation of levulinic acid esters from alpha-angelica lactone and olefins; use of ester compositions as fuel additives” (priority 2004, published 2005).

Each structure is given as a SMILES string. Structures can show the parent of a compound that is named as a salt.

The conditions of series [1]: for Lower Heating Value [2]: reference [2] Walters, molar group contributions; for Lower Heating Value [1]: reference [1] DIPPR, cells marked [3] from DOE/EIA report.
For series [2] the following is noted: reference [1] DIPPR.
For series [3] the following is noted: reference [1] DIPPR. The source holds these as a separate data set.

On to `CCCOC(=O)CCC(C)=O` [N-Propyl Levulinate], for which the “Lower Heating Value [2]” value in series [1] is 13912 Btu/lb.

Regarding `CCCCCOC=O` [Amyl Formate Ester], the “Flash Point [1]” value in series [2] was 26.85 °C. Besides, the “Vapor Press. (100° F.) [1]” value in series [3] is recorded as 2.5 KPa. Moreover, in series [1], the “Lower Heating Value [1]” value is on record as 12274 Btu/lb and the “Lower Heating Value [2]” value was 13905 Btu/lb.

In the case of `CC(=O)CCC(=O)OCC(C)C` [Isobutyl Levulinate], in series [1], the “Lower Heating Value [2]” value is 13041 Btu/lb.

As to `CCC(C)OC=O` (stereo not shown) [Sec-Butyl Formate], the “Flash Point [1]” value in series [2] is 0.85 °C. Besides, the “Vapor Press. (100° F.) [1]” value in series [3] was 12.1 KPa. Also, in series [1], the “Lower Heating Value [2]” value is reported as 10617 Btu/lb.

Turning to `CCCCOC=O` [N-Butyl Formate], the “Flash Point [1]” value in series [2] was 18 °C. Further, in series [3], the “Vapor Press. (100° F.) [1]” value is on record as 7.4 KPa. Also, in series [1], the “Lower Heating Value [1]” value is reported as 11415 Btu/lb and the “Lower Heating Value [2]” value is 15175 Btu/lb.

Take `COC(=O)CCC(C)=O` [Methyl Levulinate]: in series [1], the “Lower Heating Value [2]” value is 10773 Btu/lb.

With `CC(C)COC=O` [Isobutyl Formate], the “Flash Point [1]” value in series [2] is 3.85 °C. In addition, in series [3], the “Vapor Press. (100° F.) [1]” value was 10.2 KPa. Moreover, in series [1], the “Lower Heating Value [1]” value is on record as 11377 Btu/lb and the “Lower Heating Value [2]” value is reported as 12797 Btu/lb.

On to `CCCCCOC(=O)CCC(C)=O` [Amyl Levulinate], for which the “Lower Heating Value [2]” value in series [1] is 14909 Btu/lb.

Take `CC(=O)CCC(=O)OC(C)(C)C` [Tert-Butyl Levulinate]: the “Lower Heating Value [2]” value in series [1] is 12010 Btu/lb.

As to `CCOC=O` [Ethyl Formate], the “Flash Point [1]” value in series [2] was −20 °C. The “Vapor Press. (100° F.) [1]” value in series [3] is recorded as 55 KPa. Also, in series [1], the “Lower Heating Value [1]” value is 8751 Btu/lb and the “Lower Heating Value [2]” value is recorded as 10139 Btu/lb.

With `CCC(C)OC(=O)CCC(C)=O` (stereo not shown) [Sec-Butyl Levulinate], in series [1], the “Lower Heating Value [2]” value is 11748 Btu/lb.

With `CC(=O)CCC(=O)OC(C)C` [Isopropyl Levulinate], the “Lower Heating Value [2]” value in series [1] is 10969 Btu/lb.

In the case of `CO` [Methanol, reference compound], the “Flash Point [1]” value in series [2] was 10.85 °C. Moreover, the “Vapor Press. (100° F.) [1]” value in series [3] was 32 KPa. Besides, in series [1], the “Lower Heating Value [1]” value is given as 8570 Btu/lb and the “Lower Heating Value [2]” value was 8950 Btu/lb.

On to `CC(=O)CCC(=O)OCCC(C)C` [Isoamyl Levulinate], for which, in series [1], the “Lower Heating Value [2]” value is reported as 13605 Btu/lb.

In the case of `COC=O` [Methyl Formate], in series [2], the “Flash Point [1]” value was −19.15 °C. For the same molecule, the “Vapor Press. (100° F.) [1]” value in series [3] was 126.2 KPa. In series [1], the “Lower Heating Value [1]” value is 6393 Btu/lb and the “Lower Heating Value [2]” value is given as 7711 Btu/lb.

On to `COC(C)(C)C` [MTBE, methyl tertiary-butyl ether, reference compound], for which, in series [2], the “Flash Point [1]” value was −28.15 °C. Besides, the “Vapor Press. (100° F.) [1]” value in series [3] is recorded as 55 KPa. In series [1], the “Lower Heating Value [1]” value is 15100[3] Btu/lb and the “Lower Heating Value [2]” value was 16578 Btu/lb.

In the case of `CCO` [Ethanol, reference compound], the “Flash Point [1]” value in series [2] was 12.85 °C. Also, the “Vapor Press. (100° F.) [1]” value in series [3] is on record as 16 KPa. Moreover, in series [1], the “Lower Heating Value [1]” value was 11500[3] Btu/lb and the “Lower Heating Value [2]” value was 12477 Btu/lb.

As to `CCCCOC(=O)CCC(C)=O` [N-Butyl Levulinate], the “Lower Heating Value [2]” value in series [1] is listed as 14451 Btu/lb.

Turning to `CC(C)OC=O` [Isopropyl Formate], in series [2], the “Flash Point [1]” value was −6 °C. In addition, the “Lower Heating Value [2]” value in series [1] is recorded as 12304 Btu/lb.

Regarding `CCOC(=O)CCC(C)=O` [Ethyl Levulinate], the “Lower Heating Value [2]” value in series [1] is 11722 Btu/lb.

Turning to `CC(C)(C)OC=O` [Tert-Butyl Formate], in series [2], the “Flash Point [1]” value is −9 °C. The “Vapor Press. (100° F.) [1]” value in series [3] is 19.8 KPa. In addition, in series [1], the “Lower Heating Value [1]” value is 11277 Btu/lb and the “Lower Heating Value [2]” value is on record as 12873 Btu/lb.

Take `CCCOC=O` [N-Propyl Formate]: in series [2], the “Flash Point [1]” value is −3.15 °C. Besides, the “Vapor Press. (100° F.) [1]” value in series [3] is given as 19.9 KPa. Also, in series [1], the “Lower Heating Value [1]” value is 9964 Btu/lb and the “Lower Heating Value [2]” value is 11792 Btu/lb.
